# Test results taken from PubChem BioAssay (NCI).
#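 Growth conditions: 96-well plates. Treatment: test compound, 48 hours, 5 concentrations. Analysis: linear interpolation between bracketing concentrations; unreached endpoints set to highest concentration. At the GI50, growth is halved. TGI: concentration producing complete growth inhibition.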
# Tests used:
# Experiment in all cases: NCI-60 cell line screen, 48 h
# [1] = system: MDA-MB-231 breast
# [2] = system: TK-10 renal
# [3] = system: RXF 393 renal
# [4] = system: KM12 colon
# [5] = system: OVCAR-8 ovarian
# [6] = system: SF-539 CNS
# [7] = system: SK-OV-3 ovarian
# [8] = system: K-562 leukemia
# [9] = system: A549 NSCLC
# [10] = system: NCI-H226 lung
# [11] = system: MDA-MB-435
# [12] = system: CAKI-1 renal
# [13] = system: RPMI-8226 leukemia
# [14] = system: BT-549 breast
# [15] = system: NCI-H23 lung
# [16] = system: SR leukemia
# [17] = system: NCI/ADR-RES ovarian
# [18] = system: LOX IMVI melanoma
# [19] = system: DU-145 prostate
# [20] = system: PC-3 prostate
# [21] = system: U251 CNS
# [22] = system: M14 melanoma
# [23] = system: NCI-H460 lung
# [24] = system: SN12C renal
# [25] = system: OVCAR-3 ovarian
# [26] = system: A498 renal
# [27] = system: EKVX NSCLC
# [28] = system: HL-60(TB) leukemia
# [29] = system: MALME-3M melanoma
# [30] = system: IGROV1 ovarian
# [31] = system: HS 578T breast
# [32] = system: HOP-92 NSCLC
# [33] = system: SW-620 colon
# [34] = system: SNB-75 CNS
# [35] = system: SNB-19 CNS
# [36] = system: SF-295 CNS
# [37] = system: CCRF-CEM leukemia
# [38] = system: ACHN renal
# [39] = system: OVCAR-4 ovarian
# [40] = system: SK-MEL-2 melanoma
# [41] = system: NCI-H522 lung
# [42] = system: SK-MEL-28 melanoma
# [43] = system: HCT-15 colon
# [44] = system: COLO 205 colon
# [45] = system: HCC-2998 colon
# [46] = system: T-47D breast
# [47] = system: UO-31 renal
# [48] = system: SK-MEL-5 melanoma
# [49] = system: 786-0 renal
# [50] = system: HOP-62 NSCLC
# [51] = system: HCT-116 colon
# [52] = system: HT29 colon
# [53] = system: SF-268 CNS
# [54] = system: OVCAR-5 ovarian
# [55] = system: UACC-257 melanoma
# [56] = system: MCF7 breast
# [57] = system: UACC-62 melanoma
smiles,measurement,setting,value
CN(C)c1ccc2cc(-c3ccccc3F)c(N)nc2c1,GI50,[1],3.71 µM
same,TGI,[1],19.6 µM
same,GI50,[2],3.83 µM
same,TGI,[2],16.2 µM
same,GI50,[3],2.53 µM
same,TGI,[3],10.8 µM
same,GI50,[4],0.89 µM
same,TGI,[4],14.9 µM
same,GI50,[5],3.71 µM
same,TGI,[5],15.8 µM
same,GI50,[6],2.1 µM
same,TGI,[6],7.99 µM
same,GI50,[7],2.52 µM
same,TGI,[7],12.2 µM
same,GI50,[8],0.393 µM
same,TGI,[8],16.6 µM
same,GI50,[9],2.46 µM
same,TGI,[9],16.4 µM
same,GI50,[10],3.61 µM
same,TGI,[10],20.3 µM
same,GI50,[11],0.288 µM
same,TGI,[11],10.3 µM
same,GI50,[12],3.17 µM
same,TGI,[12],21 µM
same,GI50,[13],2.83 µM
same,TGI,[13],17.7 µM
same,GI50,[14],2.57 µM
same,TGI,[14],10.6 µM
same,GI50,[15],2.89 µM
same,TGI,[15],15.7 µM
same,GI50,[16],0.491 µM
same,TGI,[16],4.99 µM
same,GI50,[17],1.06 µM
same,TGI,[17],12.3 µM
same,GI50,[18],2.69 µM
same,TGI,[18],15.1 µM
same,GI50,[19],3.09 µM
same,TGI,[19],13.2 µM
same,GI50,[20],2.21 µM
same,TGI,[20],15.2 µM
same,GI50,[21],1.24 µM
same,TGI,[21],12.7 µM
same,GI50,[22],0.448 µM
same,TGI,[22],4.5 µM
same,GI50,[23],2.02 µM
same,TGI,[23],13.2 µM
same,GI50,[24],4.55 µM
same,TGI,[24],19.2 µM
same,GI50,[25],0.922 µM
same,TGI,[25],7.62 µM
same,GI50,[26],2.32 µM
same,TGI,[26],15.2 µM
same,GI50,[27],6.57 µM
same,TGI,[27],26.7 µM
same,GI50,[28],0.419 µM
same,TGI,[28],9.36 µM
same,GI50,[29],1.71 µM
same,TGI,[29],15.9 µM
same,GI50,[30],2.81 µM
same,TGI,[30],24.4 µM
same,GI50,[31],2.83 µM
same,TGI,[31],18.5 µM
same,GI50,[32],1.4 µM
same,TGI,[32],9.7 µM
same,GI50,[33],0.636 µM
same,TGI,[33],17.2 µM
same,GI50,[34],1.86 µM
same,TGI,[34],9.69 µM
same,GI50,[35],3.1 µM
same,TGI,[35],19.2 µM
same,GI50,[36],1.04 µM
same,TGI,[36],12.4 µM
same,GI50,[37],2.04 µM
same,TGI,[37],43.7 µM
same,GI50,[38],3.8 µM
same,TGI,[38],17.3 µM
same,GI50,[39],3.83 µM
same,TGI,[39],36 µM
same,GI50,[40],2.05 µM
same,TGI,[40],15 µM
same,GI50,[41],1.35 µM
same,TGI,[41],5.87 µM
same,GI50,[42],2.57 µM
same,TGI,[42],19.6 µM
same,GI50,[43],0.469 µM
same,TGI,[43],13.2 µM
same,GI50,[44],1.38 µM
same,TGI,[44],6.35 µM
same,GI50,[45],3.18 µM
same,TGI,[45],17.6 µM
same,GI50,[46],1.26 µM
same,TGI,[46],13.6 µM
same,GI50,[47],3.16 µM
same,TGI,[47],16.5 µM
same,GI50,[48],1.54 µM
same,TGI,[48],6.31 µM
same,GI50,[49],2.49 µM
same,TGI,[49],14.3 µM
same,GI50,[50],1.68 µM
same,TGI,[50],12.7 µM
same,GI50,[51],0.454 µM
same,TGI,[51],11 µM
same,GI50,[52],0.529 µM
same,TGI,[52],11 µM
same,GI50,[53],3.89 µM
same,TGI,[53],19.8 µM
same,GI50,[54],3.55 µM
same,TGI,[54],17.8 µM
same,GI50,[55],6.12 µM
same,TGI,[55],18.3 µM
same,GI50,[56],0.431 µM
same,TGI,[56],14.4 µM
same,GI50,[57],0.89 µM
same,TGI,[57],12 µM
